In patent US12653190B2, “Heteroaryl-triazole compounds as pesticides” (Bayer Aktiengesellschaft, priority 2020, dated 2026):

Experiments:
Format in all cases: in vivo
[1] = tested on: adult cat fleas (Ctenocephalides felis); test: Ctenocephalides felis in-vitro contact test, adult cat flea; settings: 5 μg/cm^2 (=500 g/ha), after 48 hours, read-out: efficacy (fleas dead or moribund)
In short: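 Compound in acetone coated onto inner walls of glass tubes (900 ppm solution giving 5 μg/cm^2); after drying, 5-10 adult fleas added and kept at room temperature. At 48 h, fleas placed on 45-50 °C plate ≤5 min; immotile or uncoordinated ones scored dead/moribund; efficacy as % dead/moribund.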

[2] = tested on: adult unfed cat fleas (Ctenocephalides felis); test: Ctenocephalides felis oral test; settings: 48 h, 100 ppm in cattle blood, after 2 days
In short: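 About 20 adult unfed fleas feed through parafilm on cattle blood spiked with compound (DMSO stock diluted in blood); blood held at 37° C., fleas at room temperature. Mortality (%) scored after 2 days, 100% meaning all fleas killed.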

[3] = tested on: adult mosquitoes Culex quinquefasciatus strain P00; test: Culex quinquefasciatus test (CULXFA surface treatment & contact assay); settings: surface concentration 20 mg/m^2, 30 minutes exposure, 24 hours after contact, read-out: efficacy (mortality)
Experimental: Culex quinquefasciatus Test (CULXFA Surface Treatment & Contact Assay)
(§1) • Solvent: Aceton+2000 ppm rapeseed oil methyl ester (RME)
In order to produce a sufficient, active ingredient containing solution it is necessary to solve the test compound in the solvent-mix (acetone at 2 mg/ml/RME 2 000 ppm). This solution is pipetted onto a glazed tile and after evaporation of the acetone, adult mosquitoes of the species Culex Quinquefasciatus strain P00 are placed onto the dried surface. The exposure time is 30 minutes. Mortality in percent (%) is determined 24 hours after contact of the insects to the treated surface. 100% mortality means that all tested insects are dead, whereas 0% means that no insect died.

[4] = tested on: green peach aphid (Myzus persicae); test: Myzus persicae oral test; settings: 120 h, 4 ppm, after 5 days
Experimental: • Solvent: 100 parts by weight acetone
To produce a suitable preparation of active compound, 1 part by weight of active compound is mixed with the stated amount of solvent, and the concentrate is diluted with water to the desired concentration.
50 μL compound solution is filled in microtiter plates and 150 μL IPL41 insect medium (33%+15% sugar) is added to obtain a total volume of 200 μL per well. Afterwards the plates are sealed with parafilm through which a mixed population of the green peach aphid (Myzus persicae) can suck on the compound preparation.
After 5 days mortality in % is determined. 100% means all aphids have been killed and 0% means none of the aphids have been killed.

[5] = tested on: adult flies Musca domestica strain WHO-N; test: Musca domestica test (MUSCDO surface treatment & contact assay); settings: surface concentration 4 mg/m^2, 30 minutes exposure, 24 hours after contact, read-out: efficacy (mortality)
In short: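 Compound dissolved in acetone (2 mg/ml) with 2000 ppm rapeseed oil methyl ester and dried onto glazed tiles. Adult WHO-N strain flies were held on the treated surface for 30 minutes, with % mortality scored 24 hours after contact.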

[6] = tested on: fall armyworm larvae (Spodoptera frugiperda); test: Spodoptera frugiperda spray test; settings: in Zea mays, 168 h
In short: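 Maize leaf sections were sprayed with compound in acetone/dimethylformamide diluted in water with 1000 ppm emulsifier, dried, then infested with larvae. Mortality in % was scored after 7 days, 100% meaning all caterpillars killed.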

[7] = tested on: adult mosquitoes Aedes aegypti strain MONHEIM; test: Aedes aegypti test (AEDSAE surface treatment & contact assay); settings: 24 hours after contact, read-out: efficacy (mortality)
Experimental: Aedes aegypti Test (AEDSAE Surface Treatment & Contact Assay)
as §1
In order to produce a sufficient, active ingredient containing solution it is necessary to solve the test compound in the solvent-mix (acetone at 2 mg/ml/RME 2000 ppm). This solution is pipetted onto a glazed tile and after evaporation of the acetone, adult mosquitoes of the species Aedes aegypti strain MONHEIM are placed onto the dried surface. The exposure time is 30 minutes.
Mortality in percent (%) is determined 24 hours after contact of the insects to the treated surface. 100% mortality means that all tested insects are dead, whereas 0% means that no insect died.

[8] = tested on: larvae of the southern green stink bug (Nezara viridula); test: Nezara viridula spray test; settings: 96 h, 100 g/ha, after 4 days, barley plants
In short: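 Compound in acetone/DMF was diluted in water with 1000 ppm alkylarylpolyglycol ether emulsifier. Barley plants were sprayed with it, then infested with Nezara viridula larvae. Mortality % was scored after 4 days (100% = all killed).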

[9] = tested on: green peach aphid (Myzus persicae); test: Myzus persicae spray test; settings: foliar, 120 h, after 5 days, Chinese cabbage leaf disks
In short: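 Chinese cabbage leaf disks infested with all aphid instars were sprayed with compound in acetone/DMF, diluted in water with 1000 ppm alkylarylpolyglycol ether emulsifier. Mortality (%) scored after 5 days, 100% meaning all aphids killed.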

**Q.** `C[C@H](NC(=O)c1cc(Cl)cc(OS(C)(=O)=O)c1)c1ncnn1-c1ccc(C#N)cn1` [Example I-46] was tested. Which pest or weed control at 5 µg/cm2, 5 µg/cm2 [1] did it give?
**A.** 100%

**Q.** And the mortality at 100 ppm [2]?
**A.** 100%

**Q.** And the mortality at 20 mg/m2 [3]?
**A.** 80 to 100%

**Q.** What about the mortality at 4 ppm [4] of the same compound?
**A.** 100%

**Q.** And the mortality at 4 mg/m2 [5]?
**A.** 80 to 100%

**Q.** What about the mortality at 100 g/ha [6] of the same compound?
**A.** 100%

**Q.** And the mortality at 4 mg/m2 ([7]; surface concentration 4 mg/m^2, 30 minutes exposure)?
**A.** 80 to 100%

**Q.** What about the mortality at 20 mg/m2 ([7]; surface concentration 20 mg/m^2, 30 minutes exposure) of the same compound?
**A.** 80 to 100%

**Q.** And the mortality at 100 g/ha [8]?
**A.** 100%

**Q.** And the mortality at 100 g/ha [9]?
**A.** 100%
